# Source: PubChem BioAssay (NCI)
#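 1) Cells in 96-well plates. 2) Compound, 48 h, 5 concentrations. 3) Linear interpolation between surrounding doses. 4) Unreached endpoint = highest concentration. TGI denotes the concentration required for complete inhibition of growth.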 Where a SMILES comes first, the peptide text is derived from it. [ ]: non-standard residue; d: D form. Phe(4-NO2) = N[CH](Cc1ccc([N+](=O)[O-])cc1)C(=O)O
# Key:
# Assay in all cases: inhibition of tumour cell growth, NCI panel, 48 h
# SW-620 colon = test system: SW-620 colon
# DU-145 prostate = test system: DU-145 prostate
# RXF 393 renal = test system: RXF 393 renal
# UO-31 renal = test system: UO-31 renal
# ACHN renal = test system: ACHN renal
# COLO 205 colon = test system: COLO 205 colon
# HT29 colon = test system: HT29 colon
# IGROV1 ovarian = test system: IGROV1 ovarian
# SNB-19 CNS = test system: SNB-19 CNS
# NCI/ADR-RES ovarian = test system: NCI/ADR-RES ovarian
# MCF7 breast = test system: MCF7 breast
# U251 CNS = test system: U251 CNS
# HL-60(TB) leukemia = test system: HL-60(TB) leukemia
# OVCAR-4 ovarian = test system: OVCAR-4 ovarian
# PC-3 prostate = test system: PC-3 prostate
# SK-OV-3 ovarian = test system: SK-OV-3 ovarian
# SF-539 CNS = test system: SF-539 CNS
# OVCAR-8 ovarian = test system: OVCAR-8 ovarian
# CCRF-CEM leukemia = test system: CCRF-CEM leukemia
# OVCAR-3 ovarian = test system: OVCAR-3 ovarian
# HOP-92 NSCLC = test system: HOP-92 NSCLC
# MOLT-4 leukemia = test system: MOLT-4 leukemia
# HOP-62 NSCLC = test system: HOP-62 NSCLC
# NCI-H522 lung = test system: NCI-H522 lung
# RPMI-8226 leukemia = test system: RPMI-8226 leukemia
# CAKI-1 renal = test system: CAKI-1 renal
# SK-MEL-2 melanoma = test system: SK-MEL-2 melanoma
# SK-MEL-28 melanoma = test system: SK-MEL-28 melanoma
# HCC-2998 colon = test system: HCC-2998 colon
# HCT-116 colon = test system: HCT-116 colon
# HS 578T breast = test system: HS 578T breast
# UACC-257 melanoma = test system: UACC-257 melanoma
# OVCAR-5 ovarian = test system: OVCAR-5 ovarian
# SF-295 CNS = test system: SF-295 CNS
# SF-268 CNS = test system: SF-268 CNS
# NCI-H23 lung = test system: NCI-H23 lung
# NCI-H226 lung = test system: NCI-H226 lung
# MALME-3M melanoma = test system: MALME-3M melanoma
# T-47D breast = test system: T-47D breast
# SN12C renal = test system: SN12C renal
# HCT-15 colon = test system: HCT-15 colon
# BT-549 breast = test system: BT-549 breast
# EKVX NSCLC = test system: EKVX NSCLC
# K-562 leukemia = test system: K-562 leukemia
# SNB-75 CNS = test system: SNB-75 CNS
# NCI-H460 lung = test system: NCI-H460 lung
# UACC-62 melanoma = test system: UACC-62 melanoma
# MDA-MB-435 = test system: MDA-MB-435
# MDA-MB-231 breast = test system: MDA-MB-231 breast
# M14 melanoma = test system: M14 melanoma
# LOX IMVI melanoma = test system: LOX IMVI melanoma
# TK-10 renal = test system: TK-10 renal
# KM12 colon = test system: KM12 colon
# 786-0 renal = test system: 786-0 renal
# A498 renal = test system: A498 renal
# SK-MEL-5 melanoma = test system: SK-MEL-5 melanoma
# A549 NSCLC = test system: A549 NSCLC
compound,measurement,setting,value
Cn1ncc2c(Nc3cccc(Cl)c3)nc(Nc3cccc(Cl)c3)nc21,TGI,SW-620 colon,> 58.2 µM
same,TGI,DU-145 prostate,40 µM
same,TGI,RXF 393 renal,11.6 µM
same,TGI,UO-31 renal,35.4 µM
same,TGI,ACHN renal,29.2 µM
same,TGI,COLO 205 colon,> 53.8 µM
same,TGI,HT29 colon,> 56.8 µM
same,TGI,IGROV1 ovarian,> 66.6 µM
same,TGI,SNB-19 CNS,> 94 µM
same,TGI,NCI/ADR-RES ovarian,37.3 µM
same,TGI,MCF7 breast,32.1 µM
same,TGI,U251 CNS,52.1 µM
same,TGI,HL-60(TB) leukemia,44.9 µM
same,TGI,OVCAR-4 ovarian,47.6 µM
same,TGI,PC-3 prostate,36 µM
same,TGI,SK-OV-3 ovarian,54 µM
same,TGI,SF-539 CNS,52 µM
same,TGI,OVCAR-8 ovarian,> 100 µM
same,TGI,CCRF-CEM leukemia,2.89 µM
same,TGI,OVCAR-3 ovarian,> 66.6 µM
same,TGI,HOP-92 NSCLC,44.7 µM
same,TGI,MOLT-4 leukemia,47.4 µM
same,TGI,HOP-62 NSCLC,68.6 µM
same,TGI,NCI-H522 lung,39.1 µM
same,TGI,RPMI-8226 leukemia,19.8 µM
same,TGI,CAKI-1 renal,30.8 µM
same,TGI,SK-MEL-2 melanoma,41.7 µM
same,TGI,SK-MEL-28 melanoma,41.2 µM
same,TGI,HCC-2998 colon,27.6 µM
same,TGI,HCT-116 colon,> 58.3 µM
same,TGI,HS 578T breast,43.9 µM
same,TGI,UACC-257 melanoma,25.9 µM
same,TGI,OVCAR-5 ovarian,38.8 µM
same,TGI,SF-295 CNS,21.1 µM
same,TGI,SF-268 CNS,55.8 µM
same,TGI,NCI-H23 lung,57.1 µM
same,TGI,NCI-H226 lung,> 72.3 µM
same,TGI,MALME-3M melanoma,48 µM
same,TGI,T-47D breast,37 µM
same,TGI,SN12C renal,> 67.5 µM
same,TGI,HCT-15 colon,30.9 µM
same,TGI,BT-549 breast,59 µM
same,TGI,EKVX NSCLC,54.8 µM
same,TGI,K-562 leukemia,19.2 µM
same,TGI,SNB-75 CNS,31.1 µM
same,TGI,NCI-H460 lung,> 30.9 µM
same,TGI,UACC-62 melanoma,38.5 µM
same,TGI,MDA-MB-435,> 57.6 µM
same,TGI,MDA-MB-231 breast,> 68.3 µM
same,TGI,M14 melanoma,> 58.4 µM
same,TGI,LOX IMVI melanoma,> 85.7 µM
same,TGI,TK-10 renal,27.9 µM
same,TGI,KM12 colon,> 42.2 µM
same,TGI,786-0 renal,4.84 µM
same,TGI,A498 renal,28.9 µM
same,TGI,SK-MEL-5 melanoma,> 51.6 µM
same,TGI,A549 NSCLC,> 53.4 µM
CC(NC(=O)C(Cc1ccc([N+](=O)[O-])cc1)NC(=O)C(N)CCCCN)C(=O)NC(Cc1ccc([N+](=O)[O-])cc1)C(N)=O (centres undefined) (H-K[Phe(4-NO2)]A[Phe(4-NO2)]-NH2; configuration not given here),TGI,SW-620 colon,> 100 µM
same,TGI,DU-145 prostate,> 100 µM
same,TGI,RXF 393 renal,> 100 µM
same,TGI,UO-31 renal,> 66.6 µM
same,TGI,ACHN renal,> 100 µM
same,TGI,COLO 205 colon,> 100 µM
same,TGI,HT29 colon,> 100 µM
same,TGI,IGROV1 ovarian,> 100 µM
same,TGI,SNB-19 CNS,> 100 µM
same,TGI,NCI/ADR-RES ovarian,> 100 µM
same,TGI,MCF7 breast,> 100 µM
same,TGI,U251 CNS,> 100 µM
same,TGI,HL-60(TB) leukemia,> 48.9 µM
same,TGI,OVCAR-4 ovarian,> 100 µM
same,TGI,PC-3 prostate,> 100 µM
same,TGI,SK-OV-3 ovarian,> 100 µM
same,TGI,SF-539 CNS,> 83.9 µM
same,TGI,OVCAR-8 ovarian,> 100 µM
same,TGI,CCRF-CEM leukemia,> 100 µM
same,TGI,OVCAR-3 ovarian,> 100 µM
same,TGI,HOP-92 NSCLC,70.5 µM
same,TGI,MOLT-4 leukemia,> 59.4 µM
same,TGI,HOP-62 NSCLC,> 52.1 µM
same,TGI,NCI-H522 lung,> 44.4 µM
same,TGI,RPMI-8226 leukemia,> 44.7 µM
same,TGI,CAKI-1 renal,> 100 µM
same,TGI,SK-MEL-2 melanoma,> 86.6 µM
same,TGI,SK-MEL-28 melanoma,> 100 µM
same,TGI,HCC-2998 colon,> 64.8 µM
same,TGI,HCT-116 colon,> 100 µM
same,TGI,HS 578T breast,99.6 µM
same,TGI,UACC-257 melanoma,> 84.7 µM
same,TGI,OVCAR-5 ovarian,> 100 µM
same,TGI,SF-295 CNS,> 70.9 µM
same,TGI,SF-268 CNS,> 100 µM
same,TGI,NCI-H23 lung,> 100 µM
same,TGI,NCI-H226 lung,> 100 µM
same,TGI,MALME-3M melanoma,> 83.7 µM
same,TGI,T-47D breast,> 80.8 µM
same,TGI,SN12C renal,> 100 µM
same,TGI,HCT-15 colon,> 100 µM
same,TGI,BT-549 breast,> 54 µM
same,TGI,EKVX NSCLC,> 100 µM
same,TGI,K-562 leukemia,> 55.3 µM
same,TGI,SNB-75 CNS,> 100 µM
same,TGI,NCI-H460 lung,> 100 µM
same,TGI,UACC-62 melanoma,> 100 µM
same,TGI,MDA-MB-435,> 71.5 µM
same,TGI,MDA-MB-231 breast,> 69.9 µM
same,TGI,M14 melanoma,> 74.3 µM
same,TGI,LOX IMVI melanoma,> 100 µM
same,TGI,TK-10 renal,> 100 µM
same,TGI,KM12 colon,> 57.4 µM
same,TGI,786-0 renal,> 100 µM
same,TGI,A498 renal,> 100 µM
same,TGI,SK-MEL-5 melanoma,51.5 µM
same,TGI,A549 NSCLC,> 97 µM
